What was measured:
[1] = test system: HIV-1 infected monocytes (U1); experiment: Western blot/densitometry of intracellular viral and ESCRT proteins in U1 cells; assay type: cell-based
Description: FIGS. 15A-15C are graphs and gels showing cannabidiols lower intracellular viral transcription and downstream viral products. U1 cells (1×10^6) were treated with a titration of CBD (1, 5, 10 μM) and THC (1, 5, 10 μg/mL) every day for 5 days. A) Intracellular RNA was isolated and analyzed through RT-qPCR for HIV-1 viral transcripts TAR and env. Each bar represents an average of three independent replicates. B) U1 cells (2×10^6) were treated with a titration of CBD (1, 5, 10 μM) every day for 5 days. Cells pellets were lysed, run through SDS-PAGE, and western blotted for (p-)/NF-κB, autophagosomal markers (p63, LC3), EV biogenesis marker VPS4, viral markers (gp120, Nef, p24), and Actin. C) U1 cells (5×10^6) were treated±CBD (10 μM) and Flavopiridol hydrochloride (50 nM; indicated as Flavo) and incubated for the following time points: 0 minutes, 2 hours and 6 hours. Cells were cross-linked with 1% formaldehyde solution and ChIP-ed for IgG and Pol II. ChIP DNA samples were analyzed via qPCR for TAR and env. Student's t-test was used for statistical analysis, where *p-value≤0.05; **p-value≤0.01, ***p-value≤0.001.
FIGS. 16A-16E are graphs showing normalized densitometry analysis of CBD lowering intracellular […] in HIV-1 infected monocytes. (A) Nef, (B) Pr55, (C) p24, (D) VPS4, and (E) CHMP6 densitometry counts were performed on the Western blot data from FIG. 4B, all of which were normalized to Actin levels.
Laemmli buffer was added to sample cell lysates (10-20 μg) or NT80/82 pellets. Lysates were heated at 95° C. for 3 min and 15 μL of sample was loaded onto a 4-20% Tris/glycine gel (Invitrogen). When analyzing NT80/82 pellets, samples were heated at 95° C. for 3 min, vortexed, and then heated two additional times to release captured material from NT80/82 beads. Following the release of captured cargo, the total sample was then loaded on to a 4-20% Tris-Glycine gel (Invitrogen). Gels were run at 100 V and transferred onto Immobilon PVDF membranes (Millipore) at 50 mA overnight. Membranes were blocked in 5% milk in PBS with 0.1% Tween-20 (PBS-T) for 2 h at 4° C., then incubated overnight at 4° C. in PBS-T with the appropriate primary antibody ((α-p24 (Cat: 4121; NIH AIDS Reagent Program), α-Nef (Cat: 3689; NIH AIDS Reagent Program), α-gp120 (Cat: 522; NIH AIDS Reagent Program), α-CD81 (Cat: EXOAB-CD81A-1; SBI), α-VPS4 (Cat: sc-32922; Santa Cruz Biotechnology), α-CHMP6 (Cat: sc-67231; Santa Cruz Biotechnology), α-Actin (ab-49900; Abcam), α-CD63 (Cat: EXOAB-CD63A-1; Systems Biosciences), α-SQSTM1/p62 (Cat: 5114; Cell Signaling Technology), α-MAP LC3 α/β (Cat: sc-398822; Santa Crux Biotechnology), α-Alix (Cat: sc-49268; Santa Cruz Biotechnology), α-ATG12 (Cat: sc-271688; Santa Cruz Biotechnology), α-Beclin 1 (Cat: sc-48341; Santa Cruz Biotechnology)). Membranes were washed with PBS-T and incubated for 2 h with the indicated HRP-conjugated secondary antibody at 4° C. HRP luminescence was activated with Clarity Western ECL Substrate (Bio-Rad) and visualized by the Molecular Imager ChemiDoc Touch system (Bio-Rad).
ImageJ software was used to conduct densitometry analysis on the kinase and western blot images. Background measurements were deducted from each lane to account for exposure, followed by normalization of each lane to each respective Actin measurements. […] Percent changes were calculated by subtracting normalized lane measurements from the normalized control lane.
This is potentially due innate differences in the abundance of these mRNAs. […]

[2] = test system: autophagy proteins (p62 and LC3) in U1 cells; experiment: Autophagy proteins over time in U1 cells and their EVs (Western blot); assay type: cell-based
Description: FIGS. 18A-18B are gels showing CBD promotes autophagy turnover, resulting in a decrease in extracellular autophagosomal secretion. A) U1 cells (1×10^6) were treated±CBD (10 μM) for the following incubation periods: 0, 6, 24, and 48 hours. Cells were pelleted and lysed, exosomes from supernatants were enriched with NT80/82 beads overnight at 4° C. Samples were run through SDS-PAGE and western blotted for autophagy proteins (p62 and LC3), and Actin. B) U1 cells (1×10^6) were treated±10 μM CBD (every day), Rapamycin (50 nM), INK128 (50 nM), Bafilomycin A1 (50 nM), SB 203580 (20 μM), Wortmannin (2 nM) for a 5-day incubation period. Cells were pelleted and lysed, exosomes from supernatants were enriched using NT80/82 beads overnight at 4° C. Samples were run through SDS-PAGE and western blotted for autophagy proteins (p62, LC3, ATG12-ATG5, ATG12, Beclin-1), and Actin.
FIGS. 19A-19E are graphs showing normalized densitometry analysis of CBD treatment of HIV-1 infected monocytes over time and autophagy. Intracellular (A) p62, (B) LC3 I, and (C) LC3 II levels, and extracellular (D) p62, and (E) LC3 I levels were counted on the Western blot data from FIG. 5A through densitometry analysis, followed by normalization to Actin levels.
We have previously described a complex relationship between the intracellular autophagy pathway, secretory autophagy pathway, and EVs, where regulation of the autophagy pathway in infected cells can result in the blocking of viral protein degradation and, in turn, the export of viral products through EVs. Based on this, we next asked whether CBD had any effect on EV release by examining the secretory autophagy pathway. In order to evaluate the levels of intracellular autophagy proteins in HIV-1 infected cells, U1 cells were treated with CBD (10 μM) for 0, 6, 24, and 48 hours, followed by Western blot analysis for autophagosomal markers, p62 and LC3 I/II (FIG. 18A). […] In order to examine any alterations that CBD might have on secretory autophagy in HIV-1 infected monocytes, EVs were enriched from the supernatants using NT80/82 and analyzed by Western blot for changes in secreted autophagosome proteins. […] This is in line with numerous studies which have shown the HIV-1 viral proteins Tat and Nef to be involved in autophagy deregulation in infected cells.

[3] = 10 μM every day for 5 days, FIG. 16
[4] = CBD 1, 5, 10 μM every day for 5 days

## C=C(C)[C@@H]1CCC(C)=C[C@H]1c1c(O)cc(CCCCC)cc1O [CBD, 2-[1R-3-methyl-6R-(1-methylethenyl)-2-cyclohexen-1-yl]-5-pentyl-1,3-benzenediol]
[1]; [3]
  reduction in intracellular Nef (densitometry): 62%
  reduction in intracellular Pr55 (densitometry): 99%
  reduction in intracellular p24 (densitometry): 76%
[1]; [4]
  intracellular CHMP6 (ESCRT-III): slight increase
  intracellular VPS4: slight increase
[2]; 10 μM, 6, 24, 48 hours vs untreated
  LC3 I in secreted EVs: overall lower level of LC3 I
[2]; 10 μM, 6- and 24-hour vs controls
  intracellular LC3 II: higher levels of LC3 II
[2]; 10 μM, from the 6-hour time point onwards vs untreated
  extracellular (EV) p62: lower p62 levels
[2]; 10 μM, starting at 24-hour, peaking at 48-hour, FIG. 18A
  intracellular p62: time dependent decrease
[2]; 10 μM, up to 24 hours vs untreated
  intracellular LC3 I: decrease in LC3 I levels

Reference: patent US12208080B2, “Compositions and methods for modulation of extracellular vesicle release and treatment of neurological disorders” (GEORGE MASON RESEARCH FOUNDATION, INC., priority 2018, dated 2025)
